Measurements reported in paper PMC11643690, “Chelating Properties of N6O-Donors Toward Cu(II) Ions: Speciation in Aqueous Environments and Catalytic Activity of the Dinuclear Complexes” (Molecules, 2024).

How the values were obtained:
[1] = Peroxidase-like (pro-oxidant) activity, OPD oxidation to DAP by H2O2; type: biochemical; settings: 3.2 μM complex or salt, 0.32 mM OPD, 24 mM H2O2, PBS pH 7.8, 18 h, 25 °C
Text: The pro-oxidant activity is named after another enzyme, the peroxidase. It is important to underline that this is a drawback of the studied complexes. Peroxidase, such as the already described […], decomposes hydrogen peroxide, producing water, but at the cost of oxidizing another substrate. Similarly, the complexes described here could remove hydrogen peroxide, catalyzing the oxidation of an organic substrate and leading to an enhancement of oxidative stress. Since all the catalytic measurements made so far were in the absence of an oxidizable substrate (excluding the catalyst itself), it is important to also verify this phenomenon. […] This variation in absorbance was monitored for 18 h via UV–Vis spectroscopy. […]
Figure S52: A) UV-vis spectra of [Cu2(L-RNH2)(H2O)2](ClO4)3 in a CAT assay measured every 10 minutes and centered at 450 nm. […] The arrow indicates the absorbance trend over time. B) Oxygen evolution (blue line) and absorbance at 244 nm (green dots) versus time.
For the peroxidase-like activity the variation of absorbance over time was monitored via UV-vis spectroscopy. The substrate OPD (o-phenylenediamine) was oxidized to DAP (2,3-diaminephenazine) by H2O2 in the presence of copper ions, leading to an increase of absorbance at 418 nm. […] The kinetic was recorded in a quartz cuvette with an optical path of 1 cm for 18h (acquiring a spectrum every 20 minutes) at 25°C. […]

[2] = UV–Vis titration of ligands with Cu(ClO4)2, binding constant by non-linear regression; settings: global formation constant β1,2 (1 ligand : 2 Cu(II)); 1 µM ligand, 5% v/v MeOH/BBS 50 mM, pH 7.4, 25 °C
Description: To determine the overall equilibrium constant β1,2 (Kbind), a solution of the ligand was titrated with aliquots of 0.2 equivalents of Cu(II). Monitoring the formation of the complex via UV–Vis spectroscopy, the absorbance around 260 nm, 300 nm, 450 nm, and 700 nm increased during the titration (Figure 3a) in all cases. The latter two bands are visible only at high concentrations (>0.1 mM). These changes are caused by the formation of the complex and the disappearance of the free ligand.
In Figure 3b, the linear increase in the absorbance change (ΔAbs) at 240 nm, upon an increase in Cu(II) amount, is evident, leading to a sharp plateau around 2 equivalents. […] The binding constants were determined by non-linear regression analysis of Equation (2), (2) ∆A/b=(K1∆A1Cu+ β1,2∆A2Cu^2)/1+K1Cu+ β1,2Cu^2 which traces the correlation “ΔAbs/b vs. Cu(II) concentration,” according to K. Connors. In this equation, ΔA is the differences in absorbance at a certain wavelength, b is the optical path (1 cm), K1 is the constant for the formation of the complex 1:1, and β1,2 is the global formation constant (Kbind) for the complex 1:2. ΔA1 and ΔA2 are the differences in absorbance due to the formation of the 1:1 complex and the 1:2 complex, respectively. […]
UV-vis spectra of ligands and complexes were recorded in a quartz cuvette, with 1 cm of optical path. […]

[3] = Potentiometric titration of the Cu(II)/L-CH3 system (constants of in situ-formed complexes); type: binding; settings: for logβi of in situ-formed Cu(II) complex species: overall constant, Cu(II):L 1:1 and 2:1, DMSO 5% (v/v)/H2O (HCl/KCl); for logKi of in situ-formed Cu(II) complex species: stepwise protonation constant
Description: The next step was the analysis of the system with L-CH3 and Cu(II). For a better investigation of the binging abilities of the L-CH3 ligand, the titration was performed both for the Cu(II):L-CH3 molar ratio = 1:1 and for 2:1. The overall (logβi) and stepwise (logKi) protonation constants of in situ-formed complexes are collected in Table 2. Depending on pH, L-CH3 forms mono- and di-nuclear complexes with Cu(II) ions, their relative abundance depending on the metal-to-ligand molar ratio.
Potentiometric measurements were carried out using the Metrohm pH-meter system (Herisau, Switzerland) with a Metrohm semi-micro combination electrode at 25 °C, calibrated in a hydrogen ion concentration using HCl. The ligands were dissolved in DMSO (5% v/v/H2O (HCl/KCl)) in order to obtain a concentration of 1 mM. The titrant (KOH 0.1M) was added with a micrometric syringe at 298 K in the pH range of 2.5–11.5 in an argon atmosphere. The stability constants and stoichiometry of the complexes were calculated using the titration curves and the SUPERQUAD and HYPERQUAD [47, 48].

[4] = cited from earlier work

Row | logβi of in situ-formed Cu(II) complex species [3] | logKi of in situ-formed Cu(II) complex species [3] | Compound | also measured
1 | 15.50 ± 0.03 | 9.26 | Cc1cc(CN(Cc2ccccn2)Cc2ccccn2)c([O-])c(CN(Cc2ccccn2)Cc2ccccn2)c1.[Cu+2].[Cu+2] [[Cu2L]^3+] | 
2 | 17.02 ± 0.03 | 6.82 | Cc1cc(CN(Cc2ccccn2)Cc2ccccn2)c(O)c(CN(Cc2ccccn2)Cc2ccccn2)c1.[Cu+2] [[CuHL]^2+] | 
3 | 10.20 ± 0.03 | 9.58 | Cc1cc(CN(Cc2ccccn2)Cc2ccccn2)c([O-])c(CN(Cc2ccccn2)Cc2ccccn2)c1.[Cu+2] [[CuL]^+] | 

Continued, compound first:

Row | Compound | logβi of in situ-formed Cu(II) complex species [3] | logKi of in situ-formed Cu(II) complex species [3] | also measured
4 | O.O.O.O.O.O.[Cu+2].[O-][Cl+3]([O-])([O-])[O-].[O-][Cl+3]([O-])([O-])[O-] [Cu(ClO4)2, copper perchlorate] |  |  | peroxidase-like (pro-oxidant) activity, Abs at 418 nm vs time [1]: much higher
5 | NCCc1cc(CN(Cc2ccccn2)Cc2ccccn2)c(O)c(CN(Cc2ccccn2)Cc2ccccn2)c1 [HL-RNH2] |  |  | Kbind [2]: > 10^12 M^−2
6 | Cu/Zn-SOD(human): native Cu/Zn superoxide dismutase enzyme |  |  | log(kSOD) [4]: 9.30
